Measured values as given in patent US20250136614A1, “2,7-SUBSTITUTED PYRROLO[2,1-F][1,2,4]TRIAZINE COMPOUND HAVING PROTEIN KINASE INHIBITORY ACTIVITY” (Magicbullettherapeutics Co., Ltd., priority 2021, published 2025).
Positions count from the first letter of the chain named.

Tests used:
[1] = target: T1, Ba/F3 FLT3 (ITD/D835YF691L) (Homo sapiens, UniProt P36888, F691L/D835Y, cells depend on it, form not given); assay: Ba/F3 cell growth inhibition (CellTiter-Glo, 72 hours); type: cell-based; conditions: read-out: Ba/F3 GI50s (μM) FLT3 (ITD/D835YF691L)
T1 sequence (P36888 1-993 F691L/D835Y): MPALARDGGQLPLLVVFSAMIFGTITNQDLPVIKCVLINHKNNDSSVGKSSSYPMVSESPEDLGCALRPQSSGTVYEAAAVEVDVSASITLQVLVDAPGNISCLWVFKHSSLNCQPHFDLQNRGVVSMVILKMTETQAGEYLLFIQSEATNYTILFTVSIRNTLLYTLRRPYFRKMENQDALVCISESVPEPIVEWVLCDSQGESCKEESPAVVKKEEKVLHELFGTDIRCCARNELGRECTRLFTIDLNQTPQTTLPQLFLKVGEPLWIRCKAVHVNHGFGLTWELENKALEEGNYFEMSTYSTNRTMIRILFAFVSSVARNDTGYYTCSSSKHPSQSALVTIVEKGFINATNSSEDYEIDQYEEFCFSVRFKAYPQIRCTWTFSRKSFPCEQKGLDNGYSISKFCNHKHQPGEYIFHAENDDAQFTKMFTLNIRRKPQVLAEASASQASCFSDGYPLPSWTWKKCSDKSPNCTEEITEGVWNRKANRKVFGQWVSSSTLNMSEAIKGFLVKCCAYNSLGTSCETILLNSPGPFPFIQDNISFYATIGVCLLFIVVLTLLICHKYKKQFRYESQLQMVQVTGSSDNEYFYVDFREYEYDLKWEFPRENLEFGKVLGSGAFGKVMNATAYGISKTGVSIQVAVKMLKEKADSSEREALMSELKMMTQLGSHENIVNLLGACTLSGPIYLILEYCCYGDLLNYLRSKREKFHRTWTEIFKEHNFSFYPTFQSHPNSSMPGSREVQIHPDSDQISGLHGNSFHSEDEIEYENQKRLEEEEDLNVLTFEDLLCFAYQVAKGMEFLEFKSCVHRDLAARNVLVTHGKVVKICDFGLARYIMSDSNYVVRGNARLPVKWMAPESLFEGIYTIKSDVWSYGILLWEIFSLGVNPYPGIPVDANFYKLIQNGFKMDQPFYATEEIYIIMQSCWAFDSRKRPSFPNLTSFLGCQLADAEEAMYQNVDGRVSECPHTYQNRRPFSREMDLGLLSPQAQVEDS

Ba/F3 FLT3 (ITD/D835Y) = target: T2, Ba/F3 FLT3 (ITD/D835Y) (Homo sapiens, UniProt P36888, D835Y, cells depend on it, form not given); assay: as above; type: cell-based; conditions: read-out: Ba/F3 GI50s (μM) FLT3 (ITD/D835Y)
T2 sequence (P36888 1-993 D835Y): T1 sequence (P36888 1-993 F691L/D835Y) with L691F

GI50 [1] [µM] | GI50 (Ba/F3 FLT3 (ITD/D835Y)) [µM] | SMILES
≥ 10 | < 1 | Cc1ncsc1-c1ccc(CNC(=O)[C@@H]2C[C@@H](O)CN2C(=O)[C@@H](NC(=O)COCCN2CCN(c3ccc(Nc4ncc5ccc(-c6cccc(NS(C)(=O)=O)c6)n5n4)cc3)CC2)C(C)(C)C)cc1 [Example 83, (2S,4R)-1-((S)-3,3-dimethyl-2-(2-(2-(4-(4-((7-(3-(methanesulfonamido)phenyl)pyrrolo[2,1-f][1,2,4]triazin-2-yl)amino)phenyl)piperazin-1-yl)ethoxy)acetaamino)butanoyl)-4-hydroxy-N-(4-(4-methylthiazol-5-yl)benzyl)pyrrolidin-2-carboxamide]
< 1 | < 1 | c1cc2ccc1Nc1ncc3ccc(n3n1)-c1ccc(cc1)OCCNCCCO2 [Example 30, (Z)-5,12-dioxa-3,9-diaza-2(7,2)-pyrrolo[2,1-f][1,2,4]triazina-1,4(1,4)-dibenzenacyclododecaphane]
< 1 | < 1 | O=C1CCCCCCOc2ccc(cc2)-c2ccc3cnc(nn23)Nc2cnn(c2)C2CCN(CCCN1)CC2 [Example 27, (2^1Z,4^4E)-4^1H-17-oxa-3,9-diaza-2(7,2)-pyrrolo[2,1-f1][1,2,4]triazina-5(4,1)-piperidina-4(4,1)-pyrazola-1(1,4)-benzenacycloheptadecaphan-10-one]
< 1 | < 1 | CS(=O)(=O)Nc1cccc(-c2ccc3cnc(Nc4ccc(N5CCN(CCCOc6cccc7c6C(=O)N(C6CCC(=O)NC6=O)C7=O)CC5)cc4)nn23)c1 (centres unmarked) [Example 40]
1 to 10 | 1 to 10 | O=C1CCCCCCn2cc(cn2)-c2ccc3cnc(nn23)Nc2ccc(cc2)OCCCN1 [Example 17, (1^4Z,2^1Z)-1′H-5-oxa-3,9-diaza-2(7,2)-pyrrolo[2,1-f][1,2,4]triazina-1(4,1)-pyrazola-4(1,4)-benzenacyclohexadecaphan-10-one]

SMILES | GI50 [1] [µM] | GI50 (Ba/F3 FLT3 (ITD/D835Y)) [µM]
CN1CCCn2cc(cn2)Nc2ncc3ccc(n3n2)-c2ccc(cc2)OCC1 [Example 2] | < 1 | < 1
CC(=O)N1CCCn2cc(cn2)Nc2ncc3ccc(n3n2)-c2ccc(cc2)OCC1 [Example 3, 1-((2^1Z,4^4E)-4^1H-11-oxa-3,8-diaza-2(7,2)-pyrrolo[2,1-f1][1,2,4]triazina-4(4,1)-pyrazola-1(1,4)-benzenacycloundecaphane-8-yl)ethan-1-one] | < 1 | < 1
